Consider five compounds from patent US20050282743A1, “Molecular interactions in cells” (Arbor Vita Corporation, priority 2001, published 2005).

What all share (assay type): binding
The target in assay [1] is T1, PDZ protein (GST-PDZ fusion) (Homo sapiens, UniProt Q9P202).
T1 construct: made in house; host or cells: E. coli (DH5alpha, BL21 or JM109)
T1 sequence (Q9P202 1-907): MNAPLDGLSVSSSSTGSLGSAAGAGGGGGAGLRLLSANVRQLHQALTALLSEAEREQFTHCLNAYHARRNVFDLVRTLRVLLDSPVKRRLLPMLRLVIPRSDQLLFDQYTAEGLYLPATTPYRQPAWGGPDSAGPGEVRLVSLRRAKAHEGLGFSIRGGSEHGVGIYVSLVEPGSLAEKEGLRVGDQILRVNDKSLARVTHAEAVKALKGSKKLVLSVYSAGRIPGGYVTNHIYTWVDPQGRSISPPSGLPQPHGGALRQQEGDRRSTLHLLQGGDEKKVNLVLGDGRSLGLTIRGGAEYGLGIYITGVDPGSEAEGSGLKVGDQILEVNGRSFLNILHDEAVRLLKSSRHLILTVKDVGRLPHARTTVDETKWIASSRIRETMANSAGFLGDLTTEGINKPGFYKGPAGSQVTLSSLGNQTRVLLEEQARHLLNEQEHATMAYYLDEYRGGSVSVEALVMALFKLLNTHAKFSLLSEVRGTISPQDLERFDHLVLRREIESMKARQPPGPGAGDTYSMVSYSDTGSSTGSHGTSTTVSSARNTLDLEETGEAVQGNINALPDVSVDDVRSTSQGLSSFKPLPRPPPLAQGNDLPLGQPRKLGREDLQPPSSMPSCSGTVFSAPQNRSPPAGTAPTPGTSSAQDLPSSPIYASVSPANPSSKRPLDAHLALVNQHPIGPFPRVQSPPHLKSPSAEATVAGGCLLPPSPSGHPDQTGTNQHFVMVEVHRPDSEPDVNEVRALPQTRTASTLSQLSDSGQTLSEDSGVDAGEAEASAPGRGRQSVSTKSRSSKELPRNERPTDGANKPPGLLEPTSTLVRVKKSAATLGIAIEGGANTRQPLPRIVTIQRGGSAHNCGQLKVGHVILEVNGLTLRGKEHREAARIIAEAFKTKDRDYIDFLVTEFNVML
Briefly: G' assay (10 uM PL peptide), results of TABLE 7 and TABLE 12. The note with it: PDZ KIAA1526, PDZ Domain 1. The gist of the method:
(§1)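 Biotin-PL peptide (N-term label), 10 uM vs GST-PDZ; protein 5 ug/ml by default. A450 nm binned: 1 = 0-1, 2 = 1-2, 3 = 2-3, 4 = 3-4, 5 = >4 on >2 repeats, 0 = no binding.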

Assay [2] addresses T2, PDZ protein (GST-PDZ fusion) (Homo sapiens, UniProt Q9NZN5).
T2 construct: made in house; host or cells: E. coli (DH5alpha, BL21 or JM109)
Described as above. The note with it: PDZ KIAA0382, PDZ Domain 1. The gist of the method:
as §1

The target of assay [3] is T3, PDZ protein (GST-PDZ fusion) (Homo sapiens, UniProt O14907).
T3 construct: made in house; host or cells: E. coli (DH5alpha, BL21 or JM109)
T3 sequence (O14907 1-124): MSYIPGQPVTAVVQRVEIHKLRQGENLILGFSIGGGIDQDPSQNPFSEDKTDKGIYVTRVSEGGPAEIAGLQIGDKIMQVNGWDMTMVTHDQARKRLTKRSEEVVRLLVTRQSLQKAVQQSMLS
The assay is described as above. The note with it: PDZ TIP1, PDZ Domain 1. The gist of the method: as §1

Assay [4] addresses PDZ-domain polypeptide (GST/PDZ fusion protein). Briefly: Apparent affinity (Kd) by titration of PL peptide in the G assay. The note with it: read-out: Peptide Optimal Conc (Kd by titration of the PL peptide). The gist of the method: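 A fixed concentration of GST/PDZ fusion protein, 5 ug/ml by default, was mixed in solution with increasing labeled PL peptide (e.g. 0.1 uM-1 mM). Reaction times ranged from 10 minutes to 2 days at 4-37° C. Complexes were separated from free peptide and detected via the label as in the G assay, apparent affinity coming from the saturating concentration.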

Where two headings read alike, the source gives them in different places. Peptide text beside a SMILES is read from it. * marks the point of attachment. Biotin = O=C1N[C@H]2[C@H](CS[C@H]2CCCCC(=O)*)N1

T2 sequence (Q9NZN5 whole entry, the tested form may be a part): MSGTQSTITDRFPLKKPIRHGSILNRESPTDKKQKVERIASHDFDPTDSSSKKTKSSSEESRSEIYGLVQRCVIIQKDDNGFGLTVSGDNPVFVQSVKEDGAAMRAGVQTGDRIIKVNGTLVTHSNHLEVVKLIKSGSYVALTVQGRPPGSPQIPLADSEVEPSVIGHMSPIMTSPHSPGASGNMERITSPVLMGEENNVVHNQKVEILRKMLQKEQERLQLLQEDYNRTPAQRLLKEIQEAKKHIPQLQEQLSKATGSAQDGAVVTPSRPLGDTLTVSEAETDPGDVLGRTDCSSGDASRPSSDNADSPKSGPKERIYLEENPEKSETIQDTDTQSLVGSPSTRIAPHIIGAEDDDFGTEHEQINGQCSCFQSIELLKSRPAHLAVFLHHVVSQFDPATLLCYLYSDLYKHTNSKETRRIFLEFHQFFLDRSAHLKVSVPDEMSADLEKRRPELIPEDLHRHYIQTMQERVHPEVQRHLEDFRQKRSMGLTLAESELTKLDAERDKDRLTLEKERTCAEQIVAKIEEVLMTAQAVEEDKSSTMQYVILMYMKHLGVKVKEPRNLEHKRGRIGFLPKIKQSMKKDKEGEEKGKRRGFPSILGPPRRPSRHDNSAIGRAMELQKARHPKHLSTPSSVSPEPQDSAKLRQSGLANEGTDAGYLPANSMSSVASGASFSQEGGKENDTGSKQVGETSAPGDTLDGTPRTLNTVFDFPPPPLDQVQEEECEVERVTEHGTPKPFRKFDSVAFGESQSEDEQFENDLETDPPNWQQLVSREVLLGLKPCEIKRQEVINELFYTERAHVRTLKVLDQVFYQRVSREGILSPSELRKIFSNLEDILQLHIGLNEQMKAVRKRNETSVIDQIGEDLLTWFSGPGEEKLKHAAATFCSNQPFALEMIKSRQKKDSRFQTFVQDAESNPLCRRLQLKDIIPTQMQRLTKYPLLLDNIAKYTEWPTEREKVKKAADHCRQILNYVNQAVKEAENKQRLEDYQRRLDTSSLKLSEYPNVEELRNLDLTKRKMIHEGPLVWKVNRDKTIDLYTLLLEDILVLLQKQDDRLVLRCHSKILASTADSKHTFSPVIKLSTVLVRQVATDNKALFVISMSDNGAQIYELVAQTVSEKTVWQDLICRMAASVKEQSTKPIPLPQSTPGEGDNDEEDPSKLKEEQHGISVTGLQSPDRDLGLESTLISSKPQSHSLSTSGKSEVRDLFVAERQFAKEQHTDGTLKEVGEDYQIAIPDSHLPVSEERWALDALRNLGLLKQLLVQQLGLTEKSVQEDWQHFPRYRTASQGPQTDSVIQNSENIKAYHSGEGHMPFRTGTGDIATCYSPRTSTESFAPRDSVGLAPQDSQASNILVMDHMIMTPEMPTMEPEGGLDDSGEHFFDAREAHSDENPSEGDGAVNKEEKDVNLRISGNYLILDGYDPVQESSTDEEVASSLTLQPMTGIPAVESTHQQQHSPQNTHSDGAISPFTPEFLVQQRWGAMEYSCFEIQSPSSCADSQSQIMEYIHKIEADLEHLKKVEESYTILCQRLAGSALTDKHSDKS

Turning to `CSCC[C@H](NC(=O)[C@H](C)NC(=O)[C@H](CCCNC(=N)N)NC(=O)CNC(=O)[C@@H](NC(=O)[C@H](Cc1c[nH]c2ccccc12)NC(=O)[C@H](CCCNC(=N)N)NC(=O)CNC(=O)CCCC[C@@H]1SC[C@@H]2NC(=O)N[C@@H]21)[C@@H](C)O)C(=O)N[C@@H](CO)C(=O)N[C@@H](C)C(=O)N[C@@H](Cc1c[nH]c2ccccc12)C(=O)N[C@@H](CCCCN)C(=O)N1CCC[C@H]1C(=O)N[C@H](C(=O)N[C@@H](CCCNC(=N)N)C(=O)N[C@@H](CCCNC(=N)N)C(=O)N[C@@H](CCC(=O)O)C(=O)N[C@H](C(=O)N[C@@H](CCC(=O)O)C(=O)N[C@H](C(=O)O)C(C)C)[C@@H](C)O)[C@@H](C)O` [HPV E6 #35 (modified)] (Biotin-GRWTGRAMSAWKPTRRETEV-OH; C-terminus assumed), the Classification is listed as 3 (A450 nm 2-3) in assay [1], 2 (A450 nm 1-2) in assay [2] and 5 (A450 nm of 4 more than 2× repeated) in assay [3]. The Kd in assay [4] (PDZ FLJ 00011, PDZ Domain 1) stood at 0.35 µM.
As to `CC[C@H](C)[C@H](NC(=O)CNC(=O)[C@H](CO)NC(=O)[C@H](Cc1ccccc1)NC(=O)[C@@H](NC(=O)[C@H](CS)NC(=O)CNC(=O)CNC(=O)[C@H](C)NC(=O)[C@@H]1CCCN1C(=O)[C@@H](NC(=O)[C@@H]1CCCN1C(=O)CCCC[C@@H]1SC[C@@H]2NC(=O)N[C@@H]21)[C@@H](C)CC)[C@@H](C)O)C(=O)N[C@@H](Cc1ccccc1)C(=O)N1CCC[C@H]1C(=O)N[C@H](C(=O)N[C@@H](CC(C)C)C(=O)N[C@H](C(=O)N[C@@H](CO)C(=O)N1CCC[C@H]1C(=O)N[C@@H](CC(C)C)C(=O)O)[C@@H](C)O)[C@@H](C)O` [KIA 1481] (Biotin-PIPAGGCTFSGIFPTLTSPL-OH; C-terminus assumed), the Classification in assay [1] is recorded as 2 (A450 nm 1-2); in assay [2], 5 (A450 nm of 4 more than 2× repeated); in assay [3], 2 (A450 nm 1-2).
In the case of `CC(C)C[C@H](NC(=O)[C@H](C)NC(=O)[C@@H](NC(=O)[C@@H](NC(=O)[C@H](Cc1c[nH]cn1)NC(=O)[C@H](CC(C)C)NC(=O)CNC(=O)[C@H](CCC(N)=O)NC(=O)CNC(=O)CNC(=O)[C@H](C)NC(=O)[C@H](C)NC(=O)[C@H](CCCNC(=N)N)NC(=O)[C@H](C)NC(=O)[C@H](CO)NC(=O)[C@H](CC(=O)O)NC(=O)[C@H](CC(=O)O)NC(=O)[C@H](Cc1c[nH]c2ccccc12)NC(=O)[C@H](C)NC(=O)CCCC[C@@H]1SC[C@@H]2NC(=O)N[C@@H]21)C(C)C)[C@@H](C)O)C(=O)O` [LPAP] (Biotin-AWDDSARAAGGQGLHVTAL-OH; C-terminus assumed), the Classification in assay [1] is reported as 1 (A450 nm 0-1); in assay [2], 5 (A450 nm of 4 more than 2× repeated). In addition, in assay [4] (PDZ FLJ 00011, PDZ Domain 1), the Kd worked out at 1.5 µM.
TQGFPGPATWRRISSLESEV: the values for the Classification in assay [1], in assay [2] and in assay [3] were 3 (A450 nm 2-3), 1 (A450 nm 0-1) and 5 (A450 nm of 4 more than 2× repeated), respectively.
As for `CC[C@H](C)[C@H](NC(=O)[C@H](CCCCN)NC(=O)[C@@H](NC(=O)[C@H](CO)NC(=O)[C@@H]1CCCN1C(=O)[C@H](Cc1ccccc1)NC(=O)[C@@H](NC(=O)[C@@H](NC(=O)[C@H](CCCNC(=N)N)NC(=O)[C@H](CCC(=O)O)NC(=O)[C@H](CC(C)C)NC(=O)[C@H](CC(C)C)NC(=O)[C@H](CC(C)C)NC(=O)[C@@H](NC(=O)CNC(=O)[C@@H](NC(=O)CCCC[C@@H]1SC[C@@H]2NC(=O)N[C@@H]21)C(C)C)[C@@H](C)O)C(C)C)[C@@H](C)CC)C(C)C)C(=O)N[C@@H](C)C(=O)N[C@H](C(=O)N[C@@H](CC(C)C)C(=O)N[C@H](C(=O)O)C(C)C)[C@@H](C)O` [Adenovirus E4 Type9], the Classification in assay [2] (PL peptide 10 uM) is 1 (A450 nm 0-1). The Kd in assay [4] (PDZ BAI-1, PDZ Domain 2, Protein Optimal Conc 0.3) came out at 0.02 µM; in assay [4] (PDZ BAI-1, PDZ Domain 3, Protein Optimal Conc 0.5), 0.075 µM; in assay [4] (PDZ BAI-1, PDZ Domain 4, Protein Optimal Conc 0.3), 0.1 µM; in assay [4] (PDZ HEMBA 1003117, PDZ Domain 1, Protein Optimal Conc 5) it was 0.3 µM.
